Reference: article PMC11866022, “Long-Chain Cyclic Arylguanidines as Multifunctional Serotonin Receptor Ligands with Antiproliferative Activity” (ACS Omega, 2025)
Where “and” joins values, the source holds several entries; their conditions need not be identical. Equal entries are not always repeated.

Assays:
[1] = calibration standards, assigned values, no reference given; cited from earlier work
1321N1 astrocytoma cells = assay: Antiproliferative activity (MTS), 1321N1; format: cell-based, human; conditions: Homo sapiens, 1321-N1; MTS assay
Procedure: (§1) These cell lines were characterized by different mutation profiles, the main one being the variable status of the p53 protein. In detail, U87MG cells have a wild-type p53 protein, while astrocytoma and the rest of GBM cells harbor mutated p53 protein. Additional assays were performed on MCF7 breast cancer and AsPC-1 pancreatic cancer cells. The wide range of tested lines was aimed at screening the anticancer potential of the tested compounds. The first represents one of the most common and the second one of the most aggressive cancers in the world. Comparing the activity of compounds on GBM cells to other types of cancer may reveal their selectivity and usefulness in targeted therapies. The cytotoxicity of the compounds on normal human astrocytes (NHA) and Feline catus astrocyte (PG-4) was determined. Tests on normal lines serve to verify the potential toxicity of the tested compounds on healthy cells. Due to the targeting of CNS tumors, astrocytes were selected as normal lines.
(§2) The detailed procedure is presented in previous publications.[53] […] Cells were cultured in appropriate media, supplemented with FBS, antibiotics, and other supplements, and incubated at 37 °C with 5% CO2. […] Cell viability was assessed using the MTS assay, and the inhibitory concentration (IC50) was calculated using GraphPad Prism 8.0. Each compound was tested in triplicate across multiple experiments.
Supplementary materials - Biological research […]

5-HT6 = biological target: T1, 5-HT6 (Homo sapiens, UniProt P50406); assay: Radioligand binding assay, 5-HT6 ([3H]-LSD); conditions: HEK293 cell line with human 5-HT6R; 2 nM [3H]-LSD
T1 construct: expressed in transfected cells; host or cells: HEK293
Procedure: Ligand affinity for 5-HT6 receptors was subsequently tested with a radioligand binding assay, using the HEK293 cell line with human 5-HT6R, aiming to select compounds with the strongest affinity. Three compounds belonging to 2-naphthalenesulfonamide derivatives of 3,4-dihydroquinazolin-2-amines were obtained (Table 1).
The detailed procedure is presented in previous publications.[53] Assays were performed by incubating for 1 h at 37 °C (room temperature for 5-HT1A) in 200 μL volumes on 96-well plates. The reaction was terminated by rapid filtration using Unifilter plates, and radioactivity on the filters was measured with a PerkinElmer Microbeta plate reader. Radioligands used were:
Eight concentrations (10^–4 to 10^–11 M) were tested in triplicate for each compound. Inhibition constants (Ki) were calculated using the Cheng–Prusoff equation.[54] The results are expressed as the means of at least two independent experiments.

U87MG glioblastoma cells = assay: Antiproliferative activity (MTS), U87MG; format: cell-based, human; conditions: Homo sapiens, U-87 MG; MTS assay
Procedure: as §1, §2
Supplementary materials - Biological research
B) U87MG glioblastoma multiforme line.
and U87MG glioblastoma multiforme line for C) PP 3; D) PP 6; E) PP 8; F) PP 10; G) PP 11; H) PP

[2] = tested on: LN-229 glioblastoma cells; assay: Antiproliferative activity (MTS), LN-229; format: cell-based, human; conditions: Homo sapiens, LN-229; MTS assay, 72 h
Procedure: as §1, §2

U-251 glioblastoma cells = assay: Antiproliferative activity (MTS), U-251; format: cell-based, human; conditions: Homo sapiens, U-251; MTS assay, 72 h
Procedure: as §1, §2

MCF7 breast cancer cells = assay: Antiproliferative activity (MTS), MCF7; format: cell-based, human; conditions: Homo sapiens, MCF7; MTS assay, 72 h
Procedure: as §1, §2

[3] = tested on: AsPC-1 pancreatic cancer cells; assay: Antiproliferative activity (MTS), AsPC-1; format: cell-based, human; conditions: Homo sapiens, ASPC1; MTS assay, 72 h
Procedure: as §1, with “The chosen group of ligands was further examined for their ability to inhibit proliferation across multiple cancer cell lines related to the CNS system (1321N1, U87MG, LN-229, and U-251). These” for “These”
The detailed procedure is presented in previous publications.[53] Briefly, the study utilized various human cancer and normal cell lines, including LN-229 (glioblastoma), MCF7 (breast carcinoma), HepG2 (hepatoma), U-251 (glioblastoma), U87MG (glioblastoma), AsPC-1 (pancreatic adenocarcinoma), and NHA (normal human astrocytes). Cells were cultured in appropriate media, supplemented with FBS, antibiotics, and other supplements, and incubated at 37 °C with 5% CO2. Compounds were dissolved in DMSO, prepared at various concentrations (1–25 μM), and applied to the cells for 72 h. Cell viability was assessed using the MTS assay, and the inhibitory concentration (IC50) was calculated using GraphPad Prism 8.0. Each compound was tested in triplicate across multiple experiments.

[4] = Lipophilicity, chromatographic hydrophobicity index on C18 (Valko protocol); format: physicochemical
Procedure: (§3) Lipophilicity and affinity for phospholipids for each investigated molecule were assessed. Additionally, selected compounds with the highest biological activities have been characterized by their affinity plasma proteins. All experiments were performed using protocols developed by Valko.[35] These methods facilitated the calculation of chromatographic hydrophobicity indices (CHI) and plasma protein binding percentages (%PPB) in a biochromatographic experiment, with results compared to the reference. A detailed description of the experiments is provided in the Supporting Information (SI), along with the raw data. […] Although high lipophilicity may limit the medical use of the analyzed compounds since they may tend to accumulate excessively in the human body, it is remarkable that several clinically used drugs also have high lipophilicity. […] (Table 5).
(§4) The detailed procedure is presented in previous publications.[53] High-performance liquid chromatography (HPLC) analyses were conducted using the Prominence-1 LC-2030C 3D system (Shimadzu) with a DAD detector, employing three different chromatographic columns with specific stationary phases and mobile phases. The analysis was performed at 30 °C with a flow rate of 1.5 mL/min for IAM and C18 columns, and 0.9 mL/min for the Chiralpak column. Calibration standards for the columns were sourced from various suppliers and dissolved in dimethyl sulfoxide. Detection occurred in the UV range (190–300 nm) with a 5 μL injection volume. Each compound was analyzed in triplicate. Retention times for the tested compounds and calibration standards are provided in the Supporting Information (Tables S1 and S2).

[5] = Affinity to phospholipids, CHI IAM (Valko protocol); format: physicochemical; conditions: IAM column
Procedure: as §3, §4

[6] = biological target: T2, human serum albumin (HSA) (Homo sapiens, UniProt P02768); assay: HSA binding by biochromatography (HSA column); format: in vitro ADME; conditions: HSA column
T2 construct: purchased
Procedure: as §3, §4

[7] = Metabolic stability in mouse liver microsomes; format: in vitro ADME; conditions: MLMs, 120 min
Text: Moving on to the next parameter, which is metabolism, we determined metabolic stability, using mouse liver microsomes (MLMs). […]
Main metabolic pathways are marked in red.

T2 sequence (P02768 25-609): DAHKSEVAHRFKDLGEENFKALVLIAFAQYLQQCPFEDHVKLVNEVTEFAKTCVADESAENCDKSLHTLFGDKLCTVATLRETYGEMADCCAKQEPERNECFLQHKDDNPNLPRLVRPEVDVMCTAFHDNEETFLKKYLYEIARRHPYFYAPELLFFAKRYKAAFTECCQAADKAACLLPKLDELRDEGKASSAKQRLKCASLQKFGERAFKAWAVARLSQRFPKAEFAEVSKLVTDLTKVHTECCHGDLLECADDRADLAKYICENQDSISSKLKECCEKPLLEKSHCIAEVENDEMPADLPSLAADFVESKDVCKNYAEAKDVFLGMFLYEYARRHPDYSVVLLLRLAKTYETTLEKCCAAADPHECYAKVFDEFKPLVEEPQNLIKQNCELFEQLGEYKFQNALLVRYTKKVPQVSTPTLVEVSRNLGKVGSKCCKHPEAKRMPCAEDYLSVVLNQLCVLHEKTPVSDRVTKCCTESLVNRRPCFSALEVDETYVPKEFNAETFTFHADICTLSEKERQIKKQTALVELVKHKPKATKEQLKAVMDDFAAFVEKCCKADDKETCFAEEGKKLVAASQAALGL
T1 sequence (P50406 whole entry): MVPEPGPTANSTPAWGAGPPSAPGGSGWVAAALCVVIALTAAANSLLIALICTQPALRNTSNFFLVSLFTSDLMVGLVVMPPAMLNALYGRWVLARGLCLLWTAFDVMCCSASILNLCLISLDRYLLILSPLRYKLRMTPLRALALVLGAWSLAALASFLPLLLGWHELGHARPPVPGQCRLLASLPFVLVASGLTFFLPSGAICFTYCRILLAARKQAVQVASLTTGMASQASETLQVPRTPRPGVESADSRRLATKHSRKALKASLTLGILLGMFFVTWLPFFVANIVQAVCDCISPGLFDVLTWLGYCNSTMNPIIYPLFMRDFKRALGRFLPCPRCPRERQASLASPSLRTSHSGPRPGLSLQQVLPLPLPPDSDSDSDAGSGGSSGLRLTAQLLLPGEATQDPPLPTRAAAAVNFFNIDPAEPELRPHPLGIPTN

For `CC(=O)Nc1ccccc1` [Acetanilidine], the “CHI IAM of the calibration set” value [1] is listed as 11.5.
In the case of `COc1cccc2c1C(=O)c1c(O)c3c(c(O)c1C2=O)C[C@@](O)(C(=O)CO)C[C@@H]3O[C@H]1C[C@H](N)[C@H](O)[C@H](C)O1` [Doxorubicin, reference compound], the IC50 (1321N1 astrocytoma cells) is reported as 1.1 µM.
For `CCCCCCC(=O)c1ccccc1` [Heptanophenone], the “CHI IAM of the calibration set” value [1] is listed as 45.7.
In the case of `CCCCCC(=O)c1ccccc1` [Hexanophenone], the “CHI IAM of the calibration set” value [1] is given as 41.8.
In the case of `CCCCCCCC(=O)c1ccccc1` [Octanophenone], the “CHI IAM of the calibration set” value [1] is given as 49.4.
In the case of `O=S(=O)(c1ccc2ccccc2c1)N1CCN(C2=Nc3ccccc3CN2)CC1` [PP 1, 2-[4-(Naphthalene-2-sulfonyl)piperazin-1-yl]-3,4-dihydroquinazoline], the Ki (5-HT6) is reported as 8.66 ± 2.16 µM.
Molecule `O=S(=O)(NCCCCNC1=NCc2ccccc2N1)c1ccc2ccccc2c1` [PP 2, N-{4-[(1,4-Dihydroquinazolin-2-yl)amino]butyl}naphthalene-2-sulfonamide] has a Ki (5-HT6) of 0.616 ± 0.154 µM.
In the case of `O=S(=O)(NCCCCCCNC1=NCc2ccccc2N1)c1ccc2ccccc2c1` [PP 3, N-{6-[(1,4-Dihydroquinazolin-2-yl)amino]hexyl}naphthalene-2-sulfonamide], the Ki (5-HT6) is reported as 0.201 ± 0.05 µM, the IC50 (1321N1 astrocytoma cells) is reported as 13.3 ± 0.1 µM and the IC50 (U87MG glioblastoma cells) is reported as 12 ± 0.9 µM.
Work on `O=S(=O)(NCCNC1=Nc2ccccc2CN1)c1cccc2ccccc12` [PP 4, N-{2-[(3,4-Dihydroquinazolin-2-yl)amino]ethyl}naphthalene-1-sulfonamide] yielded a Ki (5-HT6) of 4.33 ± 1.08 µM, an IC50 (1321N1 astrocytoma cells) of over 25 µM and an IC50 (U87MG glioblastoma cells) of over 25 µM. For the same molecule, the IC50 [2] was over 25 µM, the IC50 (U-251 glioblastoma cells) was over 25 µM and the IC50 (MCF7 breast cancer cells) was over 25 µM. The IC50 [3] was over 25 µM, the “CHI C18 pH 2.6” value [4] was 64.9 and the “CHI C18 pH 7.4” value [4] was 79.9. For the same molecule, the “CHI C18 pH 10.5” value [4] was 101.9, the “CHI IAM” value [5] was 50.2 and the “%HSA” value [6] was 94.8%. The logKHSA [6] was 1.18 and 1.2.
In the case of `O=S(=O)(c1cccc2ccccc12)N1CCN(C2=Nc3ccccc3CN2)CC1` [PP 5, 2-[4-(Naphthalene-1-sulfonyl)piperazin-1-yl]-3,4-dihydroquinazoline], the Ki (5-HT6) is reported as 3.49 ± 0.872 µM.
In the case of `O=S(=O)(NCCCCNC1=Nc2ccccc2CN1)c1cccc2ccccc12` [PP 7, N-{4-[(3,4-Dihydroquinazolin-2-yl)amino]butyl}naphthalene-1-sulfonamide], the Ki (5-HT6) is reported as 0.697 ± 0.174 µM.
With `O=S(=O)(NCCCCCCNC1=Nc2ccccc2CN1)c1cccc2ccccc12` [PP 8, N-{6-[(3,4-Dihydroquinazolin-2-yl)amino]hexyl}naphthalene-1-sulfonamide] the Ki (5-HT6) was 0.098 ± 0.025 µM, the IC50 (1321N1 astrocytoma cells) was 18.4 ± 2.9 µM and the IC50 (U87MG glioblastoma cells) was 24.5 ± 1.4 µM. It also gave an IC50 [2] of over 25 µM, an IC50 (U-251 glioblastoma cells) of over 25 µM and an IC50 (MCF7 breast cancer cells) of over 25 µM. For the same molecule, the IC50 [3] was over 25 µM.
Molecule `CC1NC(NCCNS(=O)(=O)c2cccc3ccccc23)=Nc2ccccc21` (stereo not drawn) [PP 9, N-{2-[(4-Methyl-3,4-dihydroquinazolin-2-yl)amino]ethyl}naphthalene-1-sulfonamide] has a Ki (5-HT6) of 2.42 ± 0.605 µM.
For `CC1NC(NCCCCCCNS(=O)(=O)c2cccc3ccccc23)=Nc2c(Cl)cc(Cl)cc21` (stereo not drawn) [PP 12, N-{6-[(6,8-Dichloro-4-methyl-3,4-dihydroquinazolin-2-yl)amino]hexyl}naphthalene-1-sulfonamide], the Ki (5-HT6) was 0.208 ± 0.052 µM, the IC50 (1321N1 astrocytoma cells) was 5.7 ± 0.1 µM and the IC50 (U87MG glioblastoma cells) was 9.5 ± 0.7 µM. The “CHI C18 pH 2.6” value [4] was 97.1, the “CHI C18 pH 7.4” value [4] was 111.2 and the “CHI C18 pH 10.5” value [4] was 121.8. For the same molecule, the “CHI IAM” value [5] was 59.4, the “%HSA” value [6] was 99.7% and the logKHSA [6] was 1.9. The “metabolic stability, % of remaining” value [7] was 76.87%.
With `O=S(=O)(NCCNc1ncc2ccccc2n1)c1cccc2ccccc12` [PP 14, N-{2-[(Quinazolin-2-yl)amino]ethyl}naphthalene-1-sulfonamide] the Ki (5-HT6) was 4.18 ± 1.04 µM, the IC50 (1321N1 astrocytoma cells) was over 25 µM and the IC50 (U87MG glioblastoma cells) was over 25 µM. The IC50 [2] was over 25 µM, the IC50 (U-251 glioblastoma cells) was over 25 µM and the IC50 (MCF7 breast cancer cells) was over 25 µM. For the same molecule, the IC50 [3] was over 25 µM, the “CHI C18 pH 2.6” value [4] was 78.3 and the “CHI C18 pH 7.4” value [4] was 86.3. For the same molecule, the “CHI C18 pH 10.5” value [4] was 87.1, the “CHI IAM” value [5] was 37.2 and the “%HSA” value [6] was 95.0%. For the same molecule, the logKHSA [6] was 1.2.
In the case of `O=S(=O)(NCCCCCCNc1ncccn1)c1cccc2ccccc12` [PP 16, N-{6-[(Pyrimidin-2-yl)amino]hexyl}naphthalene-1-sulfonamide], the Ki (5-HT6) is reported as 3.1 ± 0.776 µM, the IC50 [2] is reported as over 25 µM and the IC50 (U-251 glioblastoma cells) is reported as over 25 µM. The IC50 (MCF7 breast cancer cells) was over 25 µM and the IC50 [3] was over 25 µM.
With `c1ccc(CNc2nc3ccccc3[nH]2)cc1` [PP 17, N-Benzyl-1H-1,3-benzimidazol-2-amine] the “5-HT6 Ki” value (5-HT6) was “did not show any affinity” and the Ki (5-HT6) was 31.9 ± 7.96 µM.
In the case of `c1ccc(CCNc2nc3ccccc3[nH]2)cc1` [PP 18, N-(2-Phenylethyl)-1H-1,3-benzimidazol-2-amine], the “5-HT6 Ki” value (5-HT6) is reported as “did not show any affinity” and the Ki (5-HT6) is reported as 19.8 ± 4.95 µM.
For `c1ccc2c(c1)CNC(NCCc1cccc3ccccc13)=N2` [PP 19, N-[2-(Naphthalen-1-yl)ethyl]-3,4-dihydroquinazolin-2-amine], the Ki (5-HT6) was 1.87 ± 0.46 µM, the IC50 [2] was over 25 µM and the IC50 (U-251 glioblastoma cells) was over 25 µM. The IC50 (MCF7 breast cancer cells) was over 25 µM and the IC50 [3] was over 25 µM.
With `c1ccc2c(N3CCN(c4nc5ccccc5[nH]4)CC3)cccc2c1` [PP 20, 2-[4-(Naphthalen-1-yl)piperazin-1-yl]-1H-1,3-benzodiazole] the “5-HT6 Ki” value (5-HT6) was “did not show any affinity”, the Ki (5-HT6) was 5.05 ± 1.26 µM and the IC50 [2] was over 25 µM. The IC50 (U-251 glioblastoma cells) was over 25 µM, the IC50 (MCF7 breast cancer cells) was over 25 µM and the IC50 [3] was over 25 µM.
With `c1ccc2c(c1)CNC(NCCCCCCNc1nsc3ccccc13)=N2` [PP 23, N6-(1,2-Benzothiazol-3-yl)-N1-(3,4-dihydroquinazolin-2-yl)hexane-1,6-diamine] the Ki (5-HT6) was 0.975 ± 0.244 µM.
For `CC(=O)Nc1ccc(O)cc1` [Paracetamol], the “CHI IAM of the calibration set” value [1] is given as 2.9.
